In paper PMC7912279, “Preclinical Evaluation of ^99mTc-Labeled GRPR Antagonists maSSS/SES-PEG2-RM26 for Imaging of Prostate Cancer” (Pharmaceutics, 2021):

Tests used:
[1] = Octanol-water distribution coefficient (logD); type: physicochemical; conditions: determined as previously described [35]
Experimental: To test the stability, the radiolabeled peptides were incubated with 300× molar excess of cysteine or with PBS at room temperature for 1 h. The octanol-water distribution coefficient (logD) was determined as previously described.

[2] = Metabolite analysis of urine and caecum content by radio-HPLC; type: in vivo; conditions: NMRI mice, 40 pmol, 3 h pi, two mice
Experimental: Metabolite Analysis: The NMRI mice were injected with 40 pmol of [^99mTc]Tc-maSSS-PEG2-RM26 (3 MBq) or [^99mTc]Tc-maSES-PEG2-RM26 (5.8 MBq). The mice were euthanized by CO2 inhalation 3 h pi, the content of the caecum and urine were collected and analyzed using HPLC as previously described. Centrifugation was performed using Centrifuge 5430 R (Eppendorf, Hamburg, Germany).

PC-3 xenografts = assay: Biodistribution in tumor bearing mice; type: in vivo; conditions: BALB/c nu/nu mice bearing PC-3 xenografts; for uptake, Blood / uptake, Bone / uptake, GI (gastrointestinal tract with content) / uptake, Intestine / uptake, Kidneys / uptake, Liver / uptake, Lung / uptake, Muscle / uptake, Pancreas / uptake, Spleen / uptake, Stomach / uptake, Tumor: 40 pmol (30 kBq), gamma counter, 4-7 mice; for Tumor-to-non-tumor ratio, Blood / Tumor-to-non-tumor ratio, Bone / Tumor-to-non-tumor ratio, Intestine / Tumor-to-non-tumor ratio, Kidneys / Tumor-to-non-tumor ratio, Liver / Tumor-to-non-tumor ratio, Lung / Tumor-to-non-tumor ratio, Muscle / Tumor-to-non-tumor ratio, Pancreas / Tumor-to-non-tumor ratio, Spleen / Tumor-to-non-tumor ratio, Stomach: 40 pmol
Experimental: Animals: All in vivo experiments were carried out on BALB/c nu/nu or NMRI mice provided by Scanbur A/S (Sollentuna, Sweden). All animal studies were approved by the Ethics Committee for Animal Research in Uppsala (Sweden), following the national legislation on the protection of laboratory animals (project identification code of approval 5/16, 26 February 2016). Prostate cancer xenografts expressing GRPR were established in BALB/c nu/nu mice by subcutaneous injection of PC-3 cell suspension in PBS (7 × 10^6 cells in 100 µL) four weeks before the experiment. Four to seven mice per data point were used in in vivo experiments, two mice per data point were used in metabolic analysis and SPECT/CT imaging experiments.
Biodistribution in tumor bearing mice: The comparison of biodistribution between the two radiolabeled peptides was evaluated in BALB/c nu/nu mice bearing PC-3 xenografts. Each mouse was injected with 40 pmol (30 kBq, mass of injected peptide was adjusted with unlabeled peptide) of either [^99mTc]Tc-maSSS-PEG2-RM26 or [^99mTc]Tc-maSES-PEG2-RM26. The mice were euthanized 3 h pi. Sample collection and activity measurements were done as described above. The biodistribution of [^99mTc]Tc-maSSS-PEG2-RM26 was further studied at 6 h pi following the same protocol. Additionally for [^99mTc]Tc-maSSS-PEG2-RM26, one group of xenograft bearing mice was injected with 40 pmol (30 kBq, mass of injected peptide was adjusted with unlabeled peptide) of labeled peptide with 5 nmol of unlabeled peptide and euthanized 3 h pi.

[3] = Biodistribution in NMRI mice for dosimetry estimation; type: in vivo; conditions: 40 pmol (30–500 kBq)
Experimental: Dosimetry estimation: To estimate the organs’ absorbed doses after iv injection of [^99mTc]Tc-maSSS-PEG2-RM26, NMRI mice were injected with 40 pmol (30–500 kBq) of the radiolabeled peptide and biodistribution was evaluated 0.5, 1, 3, 6, and 24 h pi. Sample collection and activity measurements were done as described above. To evaluate dosimetry in humans, uptake values in mice were upscaled using the well-established “percent kg/g method” [37] (Equation (1)):(%IA/organ)human = [(%IA/g)animal × (kg TBweight)animal × (g organ/(kg TBweight)human](1) where %IA-% injected activity.

SMILES: CC(C)C[C@H](NC(=O)C[C@H](O)[C@H](CC(C)C)NC(=O)[C@H](Cc1c[nH]cn1)NC(=O)CNC(=O)[C@@H](NC(=O)[C@H](C)NC(=O)[C@H](Cc1c[nH]c2ccccc12)NC(=O)[C@H](CCC(N)=O)NC(=O)[C@@H](Cc1ccccc1)NC(=O)COCCOCCNC(=O)[C@H](CO)NC(=O)[C@H](CO)NC(=O)[C@H](CO)NC(=O)CS)C(C)C)C(N)=O [[^99mTc]Tc-maSSS-PEG2-RM26, metal not drawn]
- logD [1]: -0.6
- intact radiolabeled peptide in urine and gastrointestinal (caecum) content [2]: no intact radiolabeled peptide
- uptake, Blood (PC-3 xenografts; 3 h pi): 0.09 ± 0.04 % IA/g
- uptake, Bone (PC-3 xenografts; 3 h pi): 0.04 ± 0.02 % IA/g
- uptake, GI (gastrointestinal tract with content) (PC-3 xenografts; 3 h pi): 56 ± 3 % IA
- uptake, Intestine (PC-3 xenografts; 3 h pi): 3 ± 1 % IA/g
- uptake, Kidneys (PC-3 xenografts; 3 h pi): 0.7 ± 0.4 % IA/g
- uptake, Liver (PC-3 xenografts; 3 h pi): 3 ± 1 % IA/g
- uptake, Lung (PC-3 xenografts; 3 h pi): 0.12 ± 0.03 % IA/g
- uptake, Muscle (PC-3 xenografts; 3 h pi): 0.04 ± 0.02 % IA/g
- uptake, Pancreas (PC-3 xenografts; 3 h pi): 6.1 ± 0.8 % IA/g
- uptake, Spleen (PC-3 xenografts; 3 h pi): 0.12 ± 0.04 % IA/g
- uptake, Stomach (PC-3 xenografts; 3 h pi): 1.4 ± 0.3 % IA/g
- uptake, Tumor (PC-3 xenografts; 3 h pi): 7 ± 2 % IA/g
- uptake, Blood (PC-3 xenografts; 6 h pi): 0.056 ± 0.009 % IA/g
- uptake, Bone (PC-3 xenografts; 6 h pi): 0.02 ± 0.02 % IA/g
- uptake, GI (gastrointestinal tract with content) (PC-3 xenografts; 6 h pi): 26 ± 6 % IA
- uptake, Intestine (PC-3 xenografts; 6 h pi): 0.4 ± 0.2 % IA/g
- uptake, Kidneys (PC-3 xenografts; 6 h pi): 0.59 ± 0.06 % IA/g
- uptake, Liver (PC-3 xenografts; 6 h pi): 0.68 ± 0.08 % IA/g
- uptake, Lung (PC-3 xenografts; 6 h pi): 0.20 ± 0.10 % IA/g
- uptake, Muscle (PC-3 xenografts; 6 h pi): 0.012 ± 0.004 % IA/g
- uptake, Pancreas (PC-3 xenografts; 6 h pi): 0.98 ± 0.08 % IA/g
- uptake, Spleen (PC-3 xenografts; 6 h pi): 0.06 ± 0.01 % IA/g
- uptake, Stomach (PC-3 xenografts; 6 h pi): 0.9 ± 0.2 % IA/g
- uptake, Tumor (PC-3 xenografts; 6 h pi): 3 ± 1 % IA/g
- Tumor-to-non-tumor ratio, Blood (PC-3 xenografts; 3 h pi): 97 ± 56
- Tumor-to-non-tumor ratio, Bone (PC-3 xenografts; 3 h pi): 177 ± 79
- Tumor-to-non-tumor ratio, Intestine (PC-3 xenografts; 3 h pi): 3 ± 1
- Tumor-to-non-tumor ratio, Kidneys (PC-3 xenografts; 3 h pi): 14 ± 9
- Tumor-to-non-tumor ratio, Liver (PC-3 xenografts; 3 h pi): 3 ± 2
- Tumor-to-non-tumor ratio, Lung (PC-3 xenografts; 3 h pi): 65 ± 20
- Tumor-to-non-tumor ratio, Muscle (PC-3 xenografts; 3 h pi): 188 ± 32
- Tumor-to-non-tumor ratio, Pancreas (PC-3 xenografts; 3 h pi): 1.2 ± 0.4
- Tumor-to-non-tumor ratio, Spleen (PC-3 xenografts; 3 h pi): 62 ± 14
- Tumor-to-non-tumor ratio, Stomach (PC-3 xenografts; 3 h pi): 5 ± 2
- Tumor-to-non-tumor ratio, Blood (PC-3 xenografts; 6 h pi): 57 ± 22
- Tumor-to-non-tumor ratio, Bone (PC-3 xenografts; 6 h pi): 287 ± 232
- Tumor-to-non-tumor ratio, Intestine (PC-3 xenografts; 6 h pi): 9 ± 4
- Tumor-to-non-tumor ratio, Kidneys (PC-3 xenografts; 6 h pi): 5 ± 2
- Tumor-to-non-tumor ratio, Liver (PC-3 xenografts; 6 h pi): 5 ± 2
- Tumor-to-non-tumor ratio, Lung (PC-3 xenografts; 6 h pi): 18 ± 8
- Tumor-to-non-tumor ratio, Muscle (PC-3 xenografts; 6 h pi): 270 ± 67
- Tumor-to-non-tumor ratio, Pancreas (PC-3 xenografts; 6 h pi): 3 ± 1
- Tumor-to-non-tumor ratio, Spleen (PC-3 xenografts; 6 h pi): 50 ± 16
- Tumor-to-non-tumor ratio, Stomach (PC-3 xenografts; 6 h pi): 3 ± 1
- uptake, Blood ([3]; 0.5 h pi): 0.7 ± 0.1 % IA/g
- uptake, Body ([3]; 0.5 h pi): 4.5 ± 0.9 %IA/sample
- uptake, Bone ([3]; 0.5 h pi): 0.26 ± 0.09 % IA/g
- uptake, Brain ([3]; 0.5 h pi): 0.031 ± 0.008 % IA/g
- uptake, Caecum ([3]; 0.5 h pi): 0.34 ± 0.09 %IA/sample
- uptake, Heart ([3]; 0.5 h pi): 0.27 ± 0.10 % IA/g
- uptake, Kidneys ([3]; 0.5 h pi): 2.5 ± 0.6 % IA/g
- uptake, Liver ([3]; 0.5 h pi): 4 ± 1 % IA/g
- uptake, Lung ([3]; 0.5 h pi): 0.7 ± 0.3 % IA/g
- uptake, Muscle ([3]; 0.5 h pi): 0.13 ± 0.03 % IA/g
- uptake, Pancreas ([3]; 0.5 h pi): 7 ± 2 % IA/g
- uptake, Small intestine ([3]; 0.5 h pi): 10 ± 2 %IA/sample
- uptake, Spleen ([3]; 0.5 h pi): 1.1 ± 0.4 % IA/g
- uptake, Stomach ([3]; 0.5 h pi): 2.2 ± 0.2 %IA/sample
- uptake, Upper large intestine ([3]; 0.5 h pi): 0.4 ± 0.3 %IA/sample
- uptake, Body ([3]; 1 h pi): 6 ± 1 %IA/sample
- uptake, Bone ([3]; 1 h pi): 0.2 ± 0.1 % IA/g
- uptake, Brain ([3]; 1 h pi): 0.04 ± 0.02 % IA/g
- uptake, Caecum ([3]; 1 h pi): 0.9 ± 0.2 %IA/sample
- uptake, Heart ([3]; 1 h pi): 0.23 ± 0.03 % IA/g
- uptake, Kidneys ([3]; 1 h pi): 4 ± 1 % IA/g
- uptake, Large intestine ([3]; 1 h pi): 0.6 ± 0.1 %IA/sample
- uptake, Liver ([3]; 1 h pi): 6 ± 1 % IA/g
- uptake, Lung ([3]; 1 h pi): 0.9 ± 0.4 % IA/g
- uptake, Pancreas ([3]; 1 h pi): 13 ± 6 % IA/g
- uptake, Small intestine ([3]; 1 h pi): 44 ± 10 %IA/sample
- uptake, Spleen ([3]; 1 h pi): 2.4 ± 1.6 % IA/g
- uptake, Stomach ([3]; 1 h pi): 6 ± 2 %IA/sample
- uptake, Blood ([3]; 3 h pi): 0.38 ± 0.06 % IA/g
- uptake, Body ([3]; 3 h pi): 4 ± 2 %IA/sample
- uptake, Bone ([3]; 3 h pi): 0.27 ± 0.04 % IA/g
- uptake, Brain ([3]; 3 h pi): 0.03 ± 0.01 % IA/g
- uptake, Caecum ([3]; 3 h pi): 16 ± 4 %IA/sample
- uptake, Heart ([3]; 3 h pi): 0.12 ± 0.01 % IA/g
- uptake, Kidneys ([3]; 3 h pi): 1.5 ± 0.3 % IA/g
- uptake, Large intestine ([3]; 3 h pi): 3.3 ± 3.5 %IA/sample
- uptake, Liver ([3]; 3 h pi): 2.5 ± 0.4 % IA/g
- uptake, Lung ([3]; 3 h pi): 0.44 ± 0.07 % IA/g
- uptake, Muscle ([3]; 3 h pi): 0.061 ± 0.006 % IA/g
- uptake, Pancreas ([3]; 3 h pi): 3.2 ± 0.7 % IA/g
- uptake, Small intestine ([3]; 3 h pi): 9 ± 3 %IA/sample
- uptake, Spleen ([3]; 3 h pi): 2 ± 1 % IA/g
- uptake, Stomach ([3]; 3 h pi): 5 ± 1 %IA/sample
- uptake, Upper large intestine ([3]; 3 h pi): 5.2 ± 5.1 %IA/sample
- uptake, Blood ([3]; 6 h pi): 0.30 ± 0.07 % IA/g
- uptake, Body ([3]; 6 h pi): 2.8 ± 0.2 %IA/sample
- uptake, Bone ([3]; 6 h pi): 0.18 ± 0.03 % IA/g
- uptake, Brain ([3]; 6 h pi): 0.03 ± 0.01 % IA/g
- uptake, Caecum ([3]; 6 h pi): 18 ± 3 %IA/sample
- uptake, Heart ([3]; 6 h pi): 0.17 ± 0.08 % IA/g
- uptake, Kidneys ([3]; 6 h pi): 1.3 ± 0.3 % IA/g
- uptake, Large intestine ([3]; 6 h pi): 30 ± 13 %IA/sample
- uptake, Liver ([3]; 6 h pi): 1.1 ± 0.3 % IA/g
- uptake, Lung ([3]; 6 h pi): 0.3 ± 0.1 % IA/g
- uptake, Muscle ([3]; 6 h pi): 0.05 ± 0.03 % IA/g
- uptake, Small intestine ([3]; 6 h pi): 2.5 ±0.8 %IA/sample
- uptake, Spleen ([3]; 6 h pi): 0.6 ± 0.5 % IA/g
- uptake, Stomach ([3]; 6 h pi): 3.2 ±0.4 %IA/sample
- uptake, Upper large intestine ([3]; 6 h pi): 14 ± 1 %IA/sample
- uptake, Blood ([3]; 24 h pi): 0.030 ± 0.006 % IA/g
- uptake, Body ([3]; 24 h pi): 0.27 ± 0.05 %IA/sample
- uptake, Bone ([3]; 24 h pi): 0.04 ± 0.02 % IA/g
- uptake, Brain ([3]; 24 h pi): 0.006 ± 0.004 % IA/g
- uptake, Caecum ([3]; 24 h pi): 0.3 ± 0.2 %IA/sample
- uptake, Heart ([3]; 24 h pi): 0.021 ± 0.003 % IA/g
- uptake, Kidneys ([3]; 24 h pi): 0.46 ± 0.08 % IA/g
- uptake, Large intestine ([3]; 24 h pi): 0.05 ± 0.03 %IA/sample
- uptake, Liver ([3]; 24 h pi): 0.39 ± 0.05 % IA/g
- uptake, Lung ([3]; 24 h pi): 0.09 ± 0.04 % IA/g
- uptake, Muscle ([3]; 24 h pi): 0.006 ± 0.003 % IA/g
- uptake, Pancreas ([3]; 24 h pi): 0.10 ± 0.02 % IA/g
- uptake, Small intestine ([3]; 24 h pi): 0.10 ± 0.05 %IA/sample
- uptake, Spleen ([3]; 24 h pi): 0.37 ± 0.09 % IA/g
- uptake, Stomach ([3]; 24 h pi): 0.2 ± 0.1 %IA/sample
- uptake, Upper large intestine ([3]; 24 h pi): 0.05 ± 0.01 %IA/sample
